From patent publication US10768179B2, “Method for predicting responsiveness to cancer treatment using p300-inhibiting compound” (National Cancer Center, priority 2014, dated 2020)

Columns and labels:
CBP-mutated cancer cells = test: Apoptosis analysis by Annexin V/PI staining after C646 treatment; assay type: cell-based; conditions: 48 hours and 96 hours after C646 treatment; FIG. 5B
Protocol: In order to detect apoptotic cells by flow cytometry, Annexin V-FITC/PI apoptosis detection kit (F. Hoffmann-La Roche, Ltd.) was used according to the manufacturer's instruction manual. Briefly, the cell pellet was suspended in a 1× binding buffer and incubated with Annexin V-FITC and PI for 20 minutes in the dark. Subsequently, the fluorescence of the cells was analyzed by flow cytometry.

[1] = test system: CBP-mutated lung cancer cells and lymphoma cells; test: Sensitivity (survival rate, IC50) of cancer cell lines to p300 inhibitor C646; assay type: cell-based
Protocol: A549, H1299, H157, SQ5, H1703, LK2, H520 (NSCLC), RL, Loucy, RC-K8, U2932, Ramos, Farage, SUP-T1, WSU-NHL, VAL, SUDHL5, Jurkat, TE8, and TE10 were separately cultured in RPMI-1640 or DMEM supplemented with 10% fetal bovine serum (FBS). MRC-5 cells (normal fibroblasts), HEK293T cells (immortalized renal epithelial cells), and RPE-1 cells (immortalized retinal epithelial cells) were separately cultured in DMEM supplemented with 10% FBS.
The viability was determined by examining intracellular ATP level using CellTiter-Glo Luminescent Cell Viability Assay kit (Promega Corp.). Each cancer cell line was transfected with siRNA (50 nM) using Lipofectamine RNAiMAX (Invitrogen Corp.). Two days later, the cells were trypsinized, counted, and reseeded in specified numbers in 96-well plate. In order to measure the cell viability, CellTiter-Glo Luminescent Cell Viability Assay kit (Promega Corp.) was added to the cells, and […] was measured using Envision (PerkinElmer, Inc.).

CC1=NN(c2ccc(C(=O)O)cc2)C(=O)/C1=C\c1ccc(-c2cc(C)c(C)cc2[N+](=O)[O-])o1 [C646]
induction of apoptosis (Annexin V stainability) (CBP-mutated cancer cells): specifically suppresses the growth of CBP-mutated cancer cells by inducing apoptosis
IC50 value for C646 ([1]; CBP-mutated vs CBP-proficient cancer cells, Student's t test, p<0.01, FIGS. 3B and 3D): low tendency relative to CBP-proficient cancer cells
sensitivity to C646 (survival rates) ([1]; CBP-mutated vs CBP-proficient lung cancer and lymphoma cell lines, FIGS. 3A and 3C): higher sensitivity of the CBP-mutated cancer cells to C646 than that of the CBP-proficient cancer cells
